Marks after values point to notes of the source that are not given here.
Assays:
[1] = test system: HECA-452 epitopes; experiment: Flow cytometric analysis of HECA-452 epitopes on human T-lymphocytes; type: cell-based; settings: CLA+ T-cells, neuraminidase (1 hr)
Method: Only positive cells, which were those cells with fluorescence above background autofluorescence and fluorochrome-conjugated secondary Ab staining, were analyzed.
For analysis of CLA expression on T-cells treated with glycoconjugate modifiers, CLA^+ T-cells were first pretreated with neuraminidase (0.1 U/ml at 37° C. for 1 h) to eliminate functional CLA and cleave all HECA-452 reactive epitopes from the cell surface (35–38). Since we wanted to investigate whether these compounds directly affected CLA expression and function, neuraminidase pretreatment followed by incubations with glycosylation modifiers allowed for examination of de novo synthesized CLA/HECA-452 epitopes re-expressed on the cell surface. After neuraminidase digestion, cells were then incubated with tunicamycin (0.02 mM) (an inhibitor of GlcNAc phosphotransferase, the initial step of N-glycosylation), swainsonine (0.23 mM) (an inhibitor of α-mannosidase II and complex-type N-glycosylation), 4-F-GlcNAc (0.05 mM) (putative inhibitor of poly-N-acetyllactosamine biosynthesis), BAG (an inhibitor of O-glycan biosynthesis) (<2 mM) or GlcNAc (5 mM) (negative control, naturally-occurring metabolic counterpart of 4-F-GlcNAc)for 30 h in the presence of human recombinant IL-2. […] Concentrations for BAG were selected based on maximal O-glycosylation inhibitory effects at non-growth inhibitory concentrations as previously reported (39). To determine a suitable concentration of 4-F-GlcNAc for examining glycoconjugate-modifying effects without influencing cell growth or protein synthesis, we performed preliminary growth inhibitory experiments of cells incubated with 4-F-GlcNAc for 2 cell doublings (˜36 h) at 37° C. (cell viability assessed by Trypan-blue exclusion).
Flow cytometric analysis was performed on human leukocytes utilizing both direct and indirect immunofluorescence staining approaches. All cells utilized for these experiments were washed twice with cold PBS/2%FBS and suspended at 10^7/ml PBS/1% FBS. Primary antibodies, anti-CLA (HECA-452), -CD4, -CD8, CD43 (L60) and PSGL-1 (PL-2) along with the appropriate isotype-matched control antibodies were incubated with the cells for 30 min on ice. Following two washes with PBS/2%FBS, cells were resuspended in PBS/1%FBS and fluorochrome-conjugated secondary antibodies (2 μl) and incubated for 30 min on ice.

[2] = test system: HCELL/CD44 activity on human hematopoietic KG1a cells; experiment: Stamper-Woodruff adhesion assay, L-selectin-dependent lymphocyte adherence to KG1a cells; type: cell-based; settings: KG1a, neuraminidase (1 hr)
Excerpt: To study the effects of 4-F-GlcNAc on the function of the L-selectin binding activity of CD44 (HCELL), we employed the shear-based, Stamper-Woodruff adhesion assay to examine the ability of 4-F-GlcNAc-treated KG1a cells to support L-selectin-dependent lymphocyte adherence. This assay is utilized to specifically assess the shear-dependent binding interactions between L-selectin naturally expressed on lymphocytes and HCELL expressed on KG1a cells (Dimitroff, C. J. et al. (2000) Proc. Nat. Acad. Sci., 97(25):13841–46; Sackstein, R. and Dimitroff, C. J. (2000) Blood, 96: 2765–74.). Before treating KG1a cells with 0.05, 0.1 or 0.5 mM 4-F-GlcNAc, we first pretreated KG1a cells with Vibrio cholerae neuraminidase (0.1 U/ml for 1 hr at 37° C.) to cleave all terminal α2,3 sialic acid-bearing residues and eliminate all HCELL activity. Glutaraldehyde-fixed monolayers of KG1a cells that were first treated with Vibrio cholerae neuraminidase (0.1 U/ml for 1 hr at 37° C.) then re-cultured in the presence of 4-F-GlcNAc (0.05–0.5 mM) for 30 hr at 37° C. Metabolic inhibitors swainsonine, an inhibitor of α-mannosidase II, tunicamycin, an inhibitor of N-acetylglucosamine phosphototransferase, were also utilized to compare the relative potencies of known glycosylation inhibitors. Human peripheral blood lymphocytes (5×10^6cells/ml RPMI1640 w/o NaBicarbonate/5%FBS) were overlayed onto KG1a monolayers at 80 rpm for 30 min. at 4° C., and after gently washing in PBS, lymphocytes bound to cell monolayers were fixed in 3% glutaraldehyde. Re-expression of HCELL activity or HECA-452-reactive CD44 on KG1a cells was determined after […] of 4-F-GlcNAc treatment. Bound lymphocytes were quantified at 100× magnification from a minimum of 5 fields from 2 slides, and the mean number of lymphocytes (standard error of the mean) was calculated.

[3] = test system: P-selectin ligand activity of murine Th1 cells; experiment: Flow chamber analysis of P-selectin binding on murine Th1 cells; type: cell-based, mouse; settings: neuraminidase treatment alone (0.1 U/ml for 1 hr at 37° C.)
Excerpt: (§1) CD4+ splenocytes were isolated from C57BL-6 mice by anti-murine CD4 L3T4 magnetic bead technology (Miltenyi Biotec) according to manufacturer's protocol. […] Culturing murine T helper cells in the presence of murine IL-12 and anti-murine IL-4 produces selectin binding Th1 cells by up-regulating FucTVII (69, 70) and core 2 enzyme (43–45, 71, 72), both critical for selectin ligand synthesis (i.e. decoration of PSGL-1 (67, 68)), and prevents the production of non-selectin binding Th2 cells (67–72). Th1 cells were also generated from mice deficient in α1,3 fucosyltransferase, FucTVII, and served as negative controls (33, 38, 40). Cells were harvested and re-plated at 2×10^6cells/ml on non-Ab coated plastic with murine IL-2 (20 ng/ml) in the presence or absence of murine IL-12 (10 ng/ml) and anti-murine IL-4 moAb 11B11 (10 μg/ml) for 48 h. […] Glycosylation inhibitors were added to cultures on day 6.5 for 30 hr, after first treating cells with neuraminidase (0.1 U/ml for 1 hr at 37° C.) to remove all cell surface terminal sialic acid resides and E and P-selectin ligand activity. Since selectin ligands are dependent on terminal sialic acid (α2,3 N-acetylneuraminic acid) for activity, this approach allowed for analysis of de novo synthesized selectin ligands in the presence of 0.05 mM 4-F-GlcNAc, N-glycan inhibitors, 0.23 mM swainsonine and 0.02 mM tunicamycin, and 1 mM GlcNAc (negative control).

[4] = test system: CD44 on human hematopoietic KG1a cells; experiment: Flow cytometric analysis of CD44 on KG1a cells; type: cell-based; settings: KG1a, neuraminidase (1 hr)
Excerpt: (§2) In a similar set of experiments, we analyzed the effects of 4-F-GlcNAc on selectin ligand expression and function on the human hematopoietic cell line KGla. KGla cells express a distinct HECA-452-reactive CD44 glycoform that functions as both an E- and L-selectin ligand (Dimitroff, C. J. et al. (2001) J. Cell Biol., 53: 1277–1286; Dimitroff, C. J. et al. (2000) Proc. Nat. Acad. Sci., 97(25):13841–46; Sackstein, R. and Dimitroff, C. J. (2000) Blood, 96: 2765–74.), otherwise known as HCELL, respectively. This specialized glycoform represents a major E-selectin and the primary L-selectin ligand on normal CD34+ HPCs and on leukemic cells, and, therefore, is also implicated in the BM homing aspects and growth-related activities of HPCs in vivo, respectively (Id.). We first performed flow cytometric analysis of HECA-452 antigen and CD44 on 4-F-GlcNAc-treated KGla cells. […] Only positive cells, which were those cells with fluorescence above background autofluorescence and fluorochrome-conjugated secondary Ab staining, were analyzed.
(§3) Flow cytometric analysis was performed on human leukocytes utilizing both direct and indirect immunofluorescence staining approaches. All cells utilized for these experiments were washed twice with cold PBS/2%FBS and suspended at 10^7/ml PBS/1% FBS. Primary antibodies, anti-CLA (HECA-452), -CD4, -CD8, CD43 (L60) and PSGL-1 (PL-2) along with the appropriate isotype-matched control antibodies were incubated with the cells for 30 min on ice. Following two washes with PBS/2%FBS, cells were resuspended in PBS/1%FBS and fluorochrome-conjugated secondary antibodies (2 μl) and incubated for 30 min on ice. Cells were washed twice with PBS/2%FBS, resuspended in PBS and flow cytometry was performed on a FACScan apparatus equipped with an argon laser tuned at 488 nm (Becton Dickinson).

[5] = test system: E-selectin ligand activity of murine Th1 cells; experiment: Flow chamber analysis of E-selectin binding on murine Th1 cells; type: cell-based, mouse; settings: neuraminidase treatment alone (0.1 U/ml for 1 hr at 37° C.)
Excerpt: as §1

[6] = test system: HECA-452 epitopes on human hematopoietic KG1a cells; experiment: Flow cytometric analysis of HECA-452 epitopes on KG1a cells; type: cell-based; settings: KG1a, neuraminidase (1 hr)
Excerpt: as §2, §3

neuraminidase: Vibrio cholerae neuraminidase, cleaves terminal sialic acid residues
HECA-452 Mean Channel Fluorescence [1]: 27 | % Inhibition (lymphocyte binding) [2]: 98* % | Mean Lymphocyte Binding [2]: 4.2 | P-selectin ligand activity of Th1 cells [3]: decreased E and P-selectin ligand activity to baseline levels | CD44 % Positive Cell Staining [4]: 100% | E-selectin ligand activity of Th1 cells [5]: decreased E and P-selectin ligand activity to baseline levels | HECA-452 Mean Channel Fluorescence [6]: 43

Reference: patent US7098195B2, “Fluorinated glucosamine analogs useful for modulating post-translational glycosylations on cells” (Health Research, Inc., priority 2001, dated 2006)
